Reference: patent US20210138025A1, “CATIONIC PEPTIDES WITH IMMUNOMODULATORY AND/OR ANTI-BIOFILM ACTIVITIES” (priority 2018, published 2021)
≈ marks a conversion by molar mass, not a printed value. Non-standard residues stand in square brackets, D forms with d. Residues, ends and D or L forms follow the SMILES beside them.

Key:
Assay type in all cases: cell-based
[1] = system: Bordatella bronchiseptica (Bb)
Protocol: (§1) The following strains were assessed vs. Staphylococcus epidermidis (Se), Pseudomonas aeruginosa (Pa), Streptococcus dysgalactiae (Sd), Pasteurella multocida (Pm), Streptococcus agalactiae (Sa), Streptococcus uberis (Su), Streptococcus suis (Ss), Mannheimia haemolytica (Mh), Bordatella bronchiseptica (Bb), Histophilus somnus (Hs), and Staphylococcus pseudintermedius (Sp) (Table 18) for Minimal Inhibitory Concentrations (MIC). Italics=excellent activity (less than or equal to 4 μg/ml).

Histophilus somnus (Hs) [2] = system: Histophilus somnus (Hs)
Protocol: as §1

[3] = system: Mannheimia haemolytica (Mh)
Protocol: as §1

[4] = system: Pasteurella multocida (Pm)
Protocol: as §1

[5] = system: Pseudomonas aeruginosa (Pa)
Protocol: as §1

[6] = system: Staphylococcus epidermidis (Se)
Protocol: as §1

[7] = system: Staphylococcus pseudintermedius (Sp)
Protocol: as §1

[8] = system: Streptococcus agalactiae (Sa)
Protocol: as §1

[9] = system: Streptococcus dysgalactiae (Sd)
Protocol: as §1

Streptococcus suis (Ss) [10] = system: Streptococcus suis (Ss)
Protocol: as §1

[11] = system: Streptococcus uberis (Su)
Protocol: as §1

E. coli (Ec) [12] = conditions: Ec
S. aureus (Sau) [13] = conditions: Sau
[14] = system: Bordatella bronchiseptica (Bb); remark: listed apart in the source
Protocol: (§2) The same strains as in Table 18 were assessed for Minimal Biofilm Inhibitory Concentrations (MBIC) (Table 19). Italics=excellent activity (less than or equal to 4 μg/ml). ND=Not determined. Peptides 3013, 3015 and 3016 inhibited biofilm growth in the largest number of bacterial strains (5, 5 and 6 out of 13 strains, respectively).

Histophilus somnus (Hs) [15] = system: Histophilus somnus (Hs); remark: listed apart in the source
Protocol: as §2

[16] = system: Mannheimia haemolytica (Mh); remark: listed apart in the source
Protocol: as §2

[17] = system: Pasteurella multocida (Pm); remark: listed apart in the source
Protocol: as §2

[18] = system: Pseudomonas aeruginosa (Pa); remark: listed apart in the source
Protocol: as §2

[19] = system: Staphylococcus epidermidis (Se); remark: listed apart in the source
Protocol: as §2

[20] = system: Staphylococcus pseudintermedius (Sp); remark: listed apart in the source
Protocol: as §2

[21] = system: Streptococcus agalactiae (Sa); remark: listed apart in the source
Protocol: as §2

[22] = system: Streptococcus dysgalactiae (Sd); remark: listed apart in the source
Protocol: as §2

Streptococcus suis (Ss) [23] = system: Streptococcus suis (Ss); remark: listed apart in the source
Protocol: as §2

[24] = system: Streptococcus uberis (Su); remark: listed apart in the source
Protocol: as §2

E. coli (Ec) [25] = conditions: Ec; remark: listed apart in the source
S. aureus (Sau) [26] = conditions: Sau; remark: listed apart in the source
CCL5 [27] = experiment: CCL5 production by peptide alone and in presence of LPS, bovine cells (Table 21); conditions: peptide 32 μg/ml
Protocol: (§3) A subset of peptides was tested for stimulation of the chemokine CCL5 (Table 21).

CCL5 [28] = experiment: CCL5 production by peptide alone and in presence of Con A, canine cells (Table 21); conditions: peptide 32 μg/ml
Protocol: as §3

monocytes = experiment: Cytokine production in unstimulated monocytes, bovine (Table 22); conditions: background subtracted
Protocol: A subset of peptides was tested for stimulation of cytokine production in monocytes (Table 22). For the tested cytokines, the peptides tended to show anti-inflammatory activity rather than […] activity.

CC[C@@H](C)[C@@H](NC(=O)[C@@H](C)NC(=O)[C@@H](CCCNC(=N)N)NC(=O)[C@@H](Cc1c[nH]c2ccccc12)NC(=O)[C@@H](CCC(N)=O)NC(=O)[C@H](N)C(C)C)C(=O)N[C@H](CCCNC(=N)N)C(=O)N[C@@H](C(=O)N[C@H](CCCNC(=N)N)C(=O)N[C@@H](C(=O)N[C@@H](C(=O)N[C@H](CCCNC(=N)N)C(N)=O)[C@H](C)CC)C(C)C)C(C)C [DJK5, VQWRAIRVRVIR] (H-[dV][dQ][dW][dR][dA][dI][dR][dV][dR][dV][dI][dR]-NH2; N-terminus and C-terminus assumed)
MIC Bb [1]: 4 µg/mL (≈ 2.58 µM) | MIC Hs (Histophilus somnus (Hs) [2]): 32 µg/mL (≈ 20.6 µM) | MIC Mh [3]: 8 µg/mL (≈ 5.16 µM) | MIC Pm [4]: 8 µg/mL (≈ 5.16 µM) | MIC Pa [5]: 4 µg/mL (≈ 2.58 µM) | MIC Se [6]: 2 µg/mL (≈ 1.29 µM) | MIC Sp [7]: <1 µg/mL | MIC Sa [8]: 2 µg/mL (≈ 1.29 µM) | MIC Sd [9]: <1 µg/mL | MIC Ss (Streptococcus suis (Ss) [10]): <1 µg/mL | MIC Su [11]: <1 µg/mL | MIC E. coli (E. coli (Ec) [12]): <1 µg/mL | MIC Ec (E. coli (Ec) [12]): <1 µg/mL | MIC S. aureus (S. aureus (Sau) [13]): 2 µg/mL (≈ 1.29 µM) | MIC Sau (S. aureus (Sau) [13]): 2 µg/mL (≈ 1.29 µM) | MBIC [14]: 2 µg/mL | MBIC (Histophilus somnus (Hs) [15]): <1 µg/mL | MBIC [16]: 4 µg/mL | MBIC [17]: 2 µg/mL | MBIC [18]: 8 µg/mL | MBIC [19]: 2 µg/mL | MBIC [20]: <1 µg/mL | MBIC [21]: 2 µg/mL | MBIC [22]: 2 µg/mL | MBIC (Streptococcus suis (Ss) [23]): 4 µg/mL | MBIC [24]: 2 µg/mL | MBIC (E. coli (Ec) [25]): <1 µg/mL | MBIC E. coli (E. coli (Ec) [25]): <1 µg/mL | MBIC (S. aureus (Sau) [26]): <1 µg/mL | MBIC S. aureus (S. aureus (Sau) [26]): <1 µg/mL | Concentration of CCL5 in the absence of stimulation by LPS or ConA (CCL5 [27]; Bovine Monocyte): 825 | Concentration of CCL5 in the absence of stimulation by LPS or ConA (CCL5 [27]; Bovine T-cells): 195 | % CCL5 production relative to that of LPS/ConA (CCL5 [27]; Bovine/LPS Monocyte): 105% | % CCL5 production relative to that of LPS/ConA (CCL5 [27]; Bovine/LPS T-cells): 79% | Concentration of CCL5 in the absence of stimulation by LPS or ConA (CCL5 [28]; Canine Monocyte): 442 | Concentration of CCL5 in the absence of stimulation by LPS or ConA (CCL5 [28]; Canine T-cells): 290 | % CCL5 production relative to that of LPS/ConA (CCL5 [28]; Canine/ConA Monocyte): 81% | % CCL5 production relative to that of LPS/ConA (CCL5 [28]; Canine/ConA T-cells): 26% | Concentration of Monocyte cytokine IFNγ in absence of additional stimulant (monocytes): -3 pg/mL | Concentration of Monocyte cytokine IL-2 in absence of additional stimulant (monocytes): -103 pg/mL | Concentration of Monocyte cytokine IL-4 in absence of additional stimulant (monocytes): -196 pg/mL | Concentration of Monocyte cytokine IL-6 in absence of additional stimulant (monocytes): 75 pg/mL | Concentration of Monocyte cytokine IL-13 in absence of additional stimulant (monocytes): 294 pg/mL
